For three compounds, IC50, MIC and Activity results are on record in ChEMBL document CHEMBL3872214, “Synthesis and evaluation of in vivo antioxidant, in vitro antibacterial, MRSA and antifungal activity of novel substituted isatin N-(2,3,4,6-tetra-O-acetyl-β-d-glucopyranosyl)thiosemicarbazones” (Eur J Med Chem, 2016).

SMILES strings stand for the structures. Values after ≈ are worked out from the molar mass of the structure shown.

Series [1] is described as follows: Cytotoxicity against human MCF7 cells after 3 days by MTT assay. Format: functional, cell-based. Particulars: MCF7, 72 h.
Series [2] is described as follows: Cytotoxicity against mouse NIH/3T3 cells after 3 days by MTT assay. The series is classed as toxicity, NIH3T3. On the technique in general: Tetrazolium dyes change colour on reduction, which living cells bring about.
Series [3] in a line: Cytotoxicity against mouse […] cells after 3 days by MTT assay. The series is classed as functional, cell-based. The settings on record: 72 h.
Series [4] is described as follows: Cytotoxicity against human Lu1 cells after 3 days by MTT assay. Format: functional, cell-based. The settings on record: Lu1, 72 h.
A short description of series [5]: Cytotoxicity against human HepG2 cells after 3 days by MTT assay. The series is classed as functional, cell-based. The settings on record: HepG2, 72 h.
A short description of series [6]: Cytotoxicity against human SW480 cells after 3 days by MTT assay. The series is classed as functional, cell-based. Particulars: SW480, 72 h.
The nature of series [7]: Cytotoxicity against human KB cells after 3 days by MTT assay. The series is classed as functional, cell-based. The settings on record: 72 h.
Series [8] relates to Staphylococcus aureus. Description: Antibacterial activity against methicillin-resistant Staphylococcus aureus 198-3 after 18 to 20 hrs by two-fold microbroth dilution method. The series is classed as functional.
In a further series the test system is Klebsiella pneumoniae. Description: Antibacterial activity against Klebsiella pneumoniae ATCC 4352 after 18 to 20 hrs by two-fold microbroth dilution method. The series is classed as functional. (In general: Dilution methods test growth across graded concentrations, often in twofold steps.)
Series [9] is described as follows: Antifungal activity against Saccharomyces cerevisiae SH20 after 72 hrs by agar dilution method. The series is classed as functional. In general terms: Agar dilution tests growth on a series of plates holding different concentrations.
The next series concerns Pseudomonas aeruginosa. Briefly: Antibacterial activity against Pseudomonas aeruginosa […] after 18 to 20 hrs by two-fold microbroth dilution method. Format: functional.
In series [10] the test system is Staphylococcus epidermidis. Description: Antibacterial activity against Staphylococcus epidermidis ATCC 12228 after 18 to 20 hrs by two-fold microbroth dilution method. The series is classed as functional.
Series [11] has as its system Rattus norvegicus. Briefly: Antioxidant activity in CCL4-intoxicated Wistar albino rat assessed as liver cytosolic superoxide dismutase activity per mg protein at 100 mg/kg, ip administered for 7 consecutive days after DL-alpha-tocopherol acetate treatment followed by CCL4 dosing measured after 24 hrs by xanthine based assay (reference value: 5.27 +/- 0.22 U). Format: functional.

For the next series, the system named is Aspergillus niger. Briefly: Antifungal activity against Aspergillus niger 439 after 72 hrs by agar dilution method. The series is classed as functional. Particulars: Aspergillus niger, 439, 72 h.
Series [12] has as its system Rattus norvegicus. Briefly: Antioxidant activity in CCL4-intoxicated Wistar albino rat assessed as liver cytosolic glutathione peroxidase activity per mg protein at 100 mg/kg, ip administered for 7 consecutive days after DL-alpha-tocopherol acetate treatment followed by CCL4 dosing measured after 24 hrs by H2O2 based spectrophotometric analysis (reference value: 0.28 +/- 0.01 U). The series is classed as functional.

Series [13] in a line: Antifungal activity against Fusarium oxysporum M42 after 72 hrs by agar dilution method. Format: functional.
The subject of series [14] is Rattus norvegicus. Briefly: Antioxidant activity in CCL4-intoxicated Wistar albino rat assessed as liver cytosolic catalase activity per mg protein at 100 mg/kg, ip administered for 7 consecutive days after DL-alpha-tocopherol acetate treatment followed by CCL4 dosing measured after 24 hrs by H2O2 based assay (reference value: 220.15 +/- 11.43 U). Format: functional.

Series [15] concerns Staphylococcus aureus. Description: Antibacterial activity against Staphylococcus aureus ATCC 11632 after 18 to 20 hrs by two-fold microbroth dilution method. Format: functional.
Series [16] concerns Staphylococcus aureus. Briefly: Antibacterial activity against methicillin-resistant Staphylococcus aureus 198-1 after 18 to 20 hrs by two-fold microbroth dilution method. The series is classed as functional.
In a further series the test system is Escherichia coli. Description: Antibacterial activity against Escherichia coli ATCC 25922 after 18 to 20 hrs by two-fold microbroth dilution method. Format: functional.
The subject of series [17] is Staphylococcus aureus. Description: Antibacterial activity against methicillin-resistant Staphylococcus aureus 198-2 after 18 to 20 hrs by two-fold microbroth dilution method. Format: functional.
In the next series the test system is Klebsiella aerogenes. Briefly: Antibacterial activity against Enterobacter aerogenes ATCC 13048 after 18 to 20 hrs by two-fold microbroth dilution method. The series is classed as functional.
Another series deals with Candida albicans. Description: Antifungal activity against Candida albicans ATCC 7754 after 72 hrs by agar dilution method. Format: functional. The settings on record: ATCC 7754, 72 h.
In a further series the test system is Bacillus subtilis. Description: Antibacterial activity against Bacillus subtilis ATCC 11774 after 18 to 20 hrs by two-fold microbroth dilution method. Format: functional.

Regarding `Cc1c2ccncc2c(C)c2c1[nH]c1ccccc12` [ELLIPTECINE], the 50% inhibitory concentration (IC50) (as a rule, the point on the concentration scale where inhibition reaches its midpoint) in [1] was 0.53 µM; in series [3], 1.27 µM; in series [4], 1.39 µM; in [5] it was 1.95 µM; in series [6], 0.75 µM; in series [7], 0.52 µM. In series [2], this compound returned an IC50 at 3 days of 0.32 µM.
As to `CC(=O)OC[C@H]1O[C@@H](NC(=S)N/N=C2/C(=O)Nc3c(Br)cc(Br)cc32)[C@H](OC(C)=O)[C@@H](OC(C)=O)[C@@H]1OC(C)=O`, the MIC (usually the lowest concentration found to suppress growth) in the series with Staphylococcus aureus [8] is 0.78 µM (≈ 0.553 µg/mL); against Klebsiella pneumoniae it was 50 µM (≈ 35.4 µg/mL); in [9], 6.25 µM (≈ 4.43 µg/mL); in the series with Pseudomonas aeruginosa, 50 µM (≈ 35.4 µg/mL); in series [10], 1.56 µM (≈ 1.11 µg/mL); in the series with Aspergillus niger it was 3.12 µM (≈ 2.21 µg/mL). For the same compound, the minimal inhibitory concentration (MIC) in series [13] amounted to 12.5 µM (≈ 8.85 µg/mL); against Staphylococcus aureus [15], 1.56 µM (≈ 1.11 µg/mL); in the series on Staphylococcus aureus [16] it was 0.78 µM (≈ 0.553 µg/mL); in the series with Escherichia coli, 50 µM (≈ 35.4 µg/mL); in the series with Staphylococcus aureus [17], 0.78 µM (≈ 0.553 µg/mL); with Klebsiella aerogenes, 50 µM (≈ 35.4 µg/mL). Further, the values for the minimal inhibitory concentration (MIC) in the series with Candida albicans and in the series on Bacillus subtilis were 6.25 µM (≈ 4.43 µg/mL) and 1.56 µM (≈ 1.11 µg/mL), respectively. The IC50 in series [1] amounted to 2.75 µM; in [3], 18.4 µM; in series [4] it was 5.53 µM; in [5], 8.41 µM; in series [6], 4.75 µM; in series [7] it was 12.8 µM. In series [2], the 50% inhibitory concentration (IC50) at 3 days stood at 1.53 µM. The values for the Activity in the series with Rattus norvegicus [11], with Rattus norvegicus [12] and in the series with Rattus norvegicus [14] were 10.89 U, 0.31 U and 397.53 U, respectively.
Take `CC(=O)OC[C@H]1O[C@@H](NC(=S)N/N=C2/C(=O)N(CC(C)C)c3ccccc32)[C@H](OC(C)=O)[C@@H](OC(C)=O)[C@@H]1OC(C)=O`: the minimal inhibitory concentration (MIC) against Staphylococcus aureus [8] was 100 µM (≈ 60.7 µg/mL); against Klebsiella pneumoniae it was 12.5 µM (≈ 7.58 µg/mL); in [9], 100 µM (≈ 60.7 µg/mL); with Pseudomonas aeruginosa it was 12.5 µM (≈ 7.58 µg/mL); in series [10], 100 µM (≈ 60.7 µg/mL); against Aspergillus niger, 100 µM (≈ 60.7 µg/mL). The MIC in series [13] is 100 µM (≈ 60.7 µg/mL); against Staphylococcus aureus [15], 100 µM (≈ 60.7 µg/mL); against Staphylococcus aureus [16], 100 µM (≈ 60.7 µg/mL); against Escherichia coli it was 12.5 µM (≈ 7.58 µg/mL); in the series with Staphylococcus aureus [17] it was 100 µM (≈ 60.7 µg/mL); in the series with Klebsiella aerogenes, 12.5 µM (≈ 7.58 µg/mL). Also, the minimum inhibitory concentration (MIC) in the series on Candida albicans and against Bacillus subtilis was 100 µM (≈ 60.7 µg/mL) throughout. The Activity in the series on Rattus norvegicus [11] turned out to be 9.88 U; in the series on Rattus norvegicus [12], 0.91 U; with Rattus norvegicus [14], 375.45 U.
